Read-outs that look alike come from different tables or passages of the source.

In general, Emax refers to the size of the effect at its maximum, as opposed to the concentration needed.

Series [1] has as its system NMuMG cells. The series can be described thus: High-content microscopy EMT screen in TGFβ-treated NMuMG cells (FA, SF, FN, cell count). Type of series: cell-based, murine.
Series [2] has as its system Py2T cells. The series can be described thus: High-content microscopy EMT assay in TGFβ-treated Py2T breast cancer cells. The format is cell-based, murine. To be noted: for Emax (maximal effect on cell count): compared to reference 10 μM SB-431542 = 100%.
Series [3] deals with ROCK. The series can be described thus: ROCK cellular assay (MLC Thr18/Ser19 phosphorylation ELISA in A7r5 cells). The format is cell-based, rat. To be noted: 90 min compound. On the technique in general: In an ELISA, binding on a coated surface is turned into a signal by an enzyme label.
The subject of series [4] is SMAD3 phosphorylation (TGFBR activity). The series can be described thus: Quantification of SMAD3 phosphorylation in TGFβ-treated NMuMG cells (immunoblot, LI-COR). Type of series: cell-based, murine. Particulars: one day TGFβ plus inhibitor. How it is done: NMuMG cells plated the day before were treated for one day with TGFβ and DMSO or an inhibitor as described in the figure legends. Cells were washed with PBS and lyzed in RIPA buffer (150 mM NaCl, 2 mM MgCl, 2 mM CaCl2, 0.5% Na-deoxycholate, 10% glycerol, 1% NP-40, 0.1% SDS, 50 mM Tris pH8 supplementary with 1 mM DTT, 10 mM NaF, 1 mM sodium orthovanadate and protease inhibitor cocktail (Roche)). The proteins were resolved using SDS-PAGE and transferred to PVDF membrane. For quantitative analysis of SMAD phosphorylation, the membrane was probed with p-SMAD2/3 and GAPDH specific primary antibodies followed by fluorescent secondary antibodies (LI-COR Biosciences). The signal was captured and quantified with the Odyssey CLx Imaging system and ImageJ software form 3 independent experiments.
For orientation: In western blotting, separated proteins are transferred to a membrane and probed.

The subject of series [5] is NMuMG cells. The series can be described thus: E-cadherin, ZO1 and vimentin immunofluorescence in TGFβ-treated NMuMG cells. The format is cell-based, murine. To be noted: four days TGFβ plus inhibitor. How it is done: NMuMG and Py2T cells were trypsinized, washed, seeded at 1000 cells/well, resuspended in 40 μl growth medium with a Multidrop-384 (Titertek) in 384-well microplates (Greiner, 781091), and grown overnight at 37°C, 5% CO2. The next day, 111 μl growth medium was added with the Multidrop-384 to 1 μl of the 2 mM library compounds of which 10 μl was transferred with a 384-well pipettor (VPrep, Agilent, US) to the cell assay plate and equilibrated for 10 min (final compound concentration 3 μM). For screenings at 300 nM or 30 nM, the compounds were diluted 1:10 or 1:100 in growth medium, respectively, before use. […]
Cells were imaged using the automated epifluorescence microscope ImageXpress Micro from Molecular Devices (Sunnyvale CA, USA) equipped with a plate-loading robot (CRS Catalyst, Thermo Scientific). […] The images were automatically analyzed by MetaXpress and segmented into sub-cellular structures based on morphological features such as object size and fluorescence distribution. Fluorescence distribution was a measure of the threshold intensity above local background and was adjusted for all parameters (nuclei, FA, SF and FN) by means of the respective positive and negative controls to compensate for inter-experimental variations between the different screening batches. […] Vimentin was quantified similar to SF and FN using the Angiogenesis module. […]

The conditions of series [6]: cited from earlier work.
Series [7] addresses EGFR (Homo sapiens, UniProt P00533). The series can be described thus: Biochemical kinase profiling (33PanQinase radiometric assay).
For series [8], the target named is FGFR1 (Homo sapiens, UniProt P11362). Described as above.
Sequence of FGFR1 (P11362 22-822): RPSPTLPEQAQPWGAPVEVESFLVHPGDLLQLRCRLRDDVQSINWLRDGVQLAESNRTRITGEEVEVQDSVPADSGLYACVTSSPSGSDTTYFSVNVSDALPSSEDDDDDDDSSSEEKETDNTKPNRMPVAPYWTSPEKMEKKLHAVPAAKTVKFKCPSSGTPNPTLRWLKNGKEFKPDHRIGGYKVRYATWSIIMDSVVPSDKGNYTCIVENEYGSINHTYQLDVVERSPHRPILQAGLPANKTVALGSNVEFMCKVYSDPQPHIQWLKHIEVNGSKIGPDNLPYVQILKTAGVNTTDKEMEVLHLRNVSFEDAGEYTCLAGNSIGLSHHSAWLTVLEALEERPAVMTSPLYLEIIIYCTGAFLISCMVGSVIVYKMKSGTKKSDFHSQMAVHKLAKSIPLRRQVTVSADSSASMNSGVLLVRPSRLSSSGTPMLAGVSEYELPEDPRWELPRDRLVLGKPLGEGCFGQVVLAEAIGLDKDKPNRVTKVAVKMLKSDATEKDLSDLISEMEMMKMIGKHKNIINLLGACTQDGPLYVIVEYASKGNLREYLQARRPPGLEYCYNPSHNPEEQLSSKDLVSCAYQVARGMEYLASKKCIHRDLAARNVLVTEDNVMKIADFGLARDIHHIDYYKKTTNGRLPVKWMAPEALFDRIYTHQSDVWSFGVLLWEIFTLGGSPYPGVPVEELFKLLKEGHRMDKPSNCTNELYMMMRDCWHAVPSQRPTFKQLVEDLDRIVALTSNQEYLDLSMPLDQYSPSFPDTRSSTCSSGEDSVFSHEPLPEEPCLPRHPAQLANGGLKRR
Series [9] has as its target FGFR2 (Homo sapiens, UniProt P21802). The series is described as above.
In series [10] the target is FGFR3 (Homo sapiens, UniProt P22607). Described as above.
Sequence of FGFR3 (P22607 23-806): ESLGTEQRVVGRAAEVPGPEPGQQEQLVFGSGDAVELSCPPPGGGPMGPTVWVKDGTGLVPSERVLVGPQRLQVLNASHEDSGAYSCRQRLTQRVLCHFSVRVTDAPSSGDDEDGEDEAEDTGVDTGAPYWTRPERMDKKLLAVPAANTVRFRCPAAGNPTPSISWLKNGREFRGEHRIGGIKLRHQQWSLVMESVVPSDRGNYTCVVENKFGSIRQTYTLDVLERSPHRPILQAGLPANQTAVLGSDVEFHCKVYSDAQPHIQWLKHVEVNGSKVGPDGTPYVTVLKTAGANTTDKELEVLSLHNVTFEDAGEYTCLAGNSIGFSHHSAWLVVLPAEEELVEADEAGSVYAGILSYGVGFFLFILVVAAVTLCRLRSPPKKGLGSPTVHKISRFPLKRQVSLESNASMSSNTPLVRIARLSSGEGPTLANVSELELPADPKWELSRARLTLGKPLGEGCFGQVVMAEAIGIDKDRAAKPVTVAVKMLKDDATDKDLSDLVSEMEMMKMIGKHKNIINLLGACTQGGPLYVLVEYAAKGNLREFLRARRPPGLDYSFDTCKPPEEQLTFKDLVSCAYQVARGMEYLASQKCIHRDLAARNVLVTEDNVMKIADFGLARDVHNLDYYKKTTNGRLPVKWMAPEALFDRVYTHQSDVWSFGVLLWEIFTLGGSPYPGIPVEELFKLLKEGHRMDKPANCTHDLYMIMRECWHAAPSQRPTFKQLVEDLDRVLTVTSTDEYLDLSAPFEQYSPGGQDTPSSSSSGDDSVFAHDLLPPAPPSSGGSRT
The target in series [11] is FGFR4 (Homo sapiens, UniProt P22455). The series is described as above.
Sequence of FGFR4 (P22455 22-802): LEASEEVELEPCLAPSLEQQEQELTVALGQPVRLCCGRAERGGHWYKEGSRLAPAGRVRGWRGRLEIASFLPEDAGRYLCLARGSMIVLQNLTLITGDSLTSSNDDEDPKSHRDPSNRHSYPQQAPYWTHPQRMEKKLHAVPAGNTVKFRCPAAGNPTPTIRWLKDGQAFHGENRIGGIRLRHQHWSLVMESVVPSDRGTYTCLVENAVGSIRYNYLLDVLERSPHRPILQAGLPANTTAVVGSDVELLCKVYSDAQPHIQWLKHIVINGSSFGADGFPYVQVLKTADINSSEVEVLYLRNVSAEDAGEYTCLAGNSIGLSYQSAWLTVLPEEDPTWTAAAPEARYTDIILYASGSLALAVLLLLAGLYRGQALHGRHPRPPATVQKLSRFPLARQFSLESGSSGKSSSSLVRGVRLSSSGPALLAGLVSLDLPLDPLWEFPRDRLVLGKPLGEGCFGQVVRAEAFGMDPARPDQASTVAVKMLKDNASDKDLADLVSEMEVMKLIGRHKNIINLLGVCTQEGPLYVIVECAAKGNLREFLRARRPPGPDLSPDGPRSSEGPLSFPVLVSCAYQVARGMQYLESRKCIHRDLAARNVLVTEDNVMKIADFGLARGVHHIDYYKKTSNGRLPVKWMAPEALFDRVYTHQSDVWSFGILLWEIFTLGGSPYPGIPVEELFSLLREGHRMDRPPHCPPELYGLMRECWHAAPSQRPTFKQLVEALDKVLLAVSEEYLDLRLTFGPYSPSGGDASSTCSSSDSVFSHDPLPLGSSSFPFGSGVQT
In series [12] the target is PDGFRA (Homo sapiens, UniProt P16234). Described as above.
Series [13] addresses PDGFRB (Homo sapiens, UniProt P09619). Described as above.
Series [14] concerns the target SRC (Homo sapiens, UniProt P12931). The series is described as above.
The mark [15] stands for this setting: Mus musculus, 96 h; NMuMG, TGFβ1 2 ng/ml plus compound, 4 days; parameter decreased by 50%; read-out: FN IC50 (fibronectin patch formation).
Setting [16] is: Mus musculus, 96 h; NMuMG, TGFβ1 2 ng/ml plus compound, 4 days; parameter decreased by 50%; read-out: SF IC50 (stress fibers).
The mark [17] stands for this setting: Mus musculus; NMuMG; cell count decreased by 50% compared to DMSO control; read-out: Tox IC50.
Where [18] appears, read: Mus musculus; read-out: CCI IC50 (cell count increase).
The mark [19] stands for this setting: Mus musculus; read-out: Emax (maximal effect on cell count).
Setting [20] is: Mus musculus, Py2T, cell count decreased by 50% compared to DMSO control, read-out: Tox IC50.
Where [21] appears, read: Py2T, TGFβ plus compound, 4 days.
Setting [22] is: Mus musculus, read-out: CCI IC50 (cell count increase).
The mark [23] stands for this setting: Mus musculus, read-out: Emax (maximal effect on cell count).

Sequence of FGFR2 (P21802 22-821): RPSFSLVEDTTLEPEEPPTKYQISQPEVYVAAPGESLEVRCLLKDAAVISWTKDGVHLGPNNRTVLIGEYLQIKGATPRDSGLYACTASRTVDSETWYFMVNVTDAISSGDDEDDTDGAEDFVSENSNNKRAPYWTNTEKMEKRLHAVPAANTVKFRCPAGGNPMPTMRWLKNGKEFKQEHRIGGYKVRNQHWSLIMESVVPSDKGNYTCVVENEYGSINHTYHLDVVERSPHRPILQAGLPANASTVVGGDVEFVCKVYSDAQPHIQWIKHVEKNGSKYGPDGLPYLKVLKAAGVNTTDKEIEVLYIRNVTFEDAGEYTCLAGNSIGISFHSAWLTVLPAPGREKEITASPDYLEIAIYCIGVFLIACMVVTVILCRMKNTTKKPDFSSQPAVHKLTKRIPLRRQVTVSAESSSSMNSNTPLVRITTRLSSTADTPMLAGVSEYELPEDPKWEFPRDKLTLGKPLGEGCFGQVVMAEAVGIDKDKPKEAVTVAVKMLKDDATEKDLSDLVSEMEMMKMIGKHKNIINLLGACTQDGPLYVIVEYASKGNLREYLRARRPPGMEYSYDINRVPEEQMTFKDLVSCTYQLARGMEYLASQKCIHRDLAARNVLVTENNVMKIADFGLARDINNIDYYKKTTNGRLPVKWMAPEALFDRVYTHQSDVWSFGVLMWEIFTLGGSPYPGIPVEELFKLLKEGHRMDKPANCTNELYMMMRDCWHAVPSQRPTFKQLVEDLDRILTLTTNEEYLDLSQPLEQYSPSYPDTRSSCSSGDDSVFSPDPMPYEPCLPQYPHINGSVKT
Sequence of EGFR (P00533 25-1210): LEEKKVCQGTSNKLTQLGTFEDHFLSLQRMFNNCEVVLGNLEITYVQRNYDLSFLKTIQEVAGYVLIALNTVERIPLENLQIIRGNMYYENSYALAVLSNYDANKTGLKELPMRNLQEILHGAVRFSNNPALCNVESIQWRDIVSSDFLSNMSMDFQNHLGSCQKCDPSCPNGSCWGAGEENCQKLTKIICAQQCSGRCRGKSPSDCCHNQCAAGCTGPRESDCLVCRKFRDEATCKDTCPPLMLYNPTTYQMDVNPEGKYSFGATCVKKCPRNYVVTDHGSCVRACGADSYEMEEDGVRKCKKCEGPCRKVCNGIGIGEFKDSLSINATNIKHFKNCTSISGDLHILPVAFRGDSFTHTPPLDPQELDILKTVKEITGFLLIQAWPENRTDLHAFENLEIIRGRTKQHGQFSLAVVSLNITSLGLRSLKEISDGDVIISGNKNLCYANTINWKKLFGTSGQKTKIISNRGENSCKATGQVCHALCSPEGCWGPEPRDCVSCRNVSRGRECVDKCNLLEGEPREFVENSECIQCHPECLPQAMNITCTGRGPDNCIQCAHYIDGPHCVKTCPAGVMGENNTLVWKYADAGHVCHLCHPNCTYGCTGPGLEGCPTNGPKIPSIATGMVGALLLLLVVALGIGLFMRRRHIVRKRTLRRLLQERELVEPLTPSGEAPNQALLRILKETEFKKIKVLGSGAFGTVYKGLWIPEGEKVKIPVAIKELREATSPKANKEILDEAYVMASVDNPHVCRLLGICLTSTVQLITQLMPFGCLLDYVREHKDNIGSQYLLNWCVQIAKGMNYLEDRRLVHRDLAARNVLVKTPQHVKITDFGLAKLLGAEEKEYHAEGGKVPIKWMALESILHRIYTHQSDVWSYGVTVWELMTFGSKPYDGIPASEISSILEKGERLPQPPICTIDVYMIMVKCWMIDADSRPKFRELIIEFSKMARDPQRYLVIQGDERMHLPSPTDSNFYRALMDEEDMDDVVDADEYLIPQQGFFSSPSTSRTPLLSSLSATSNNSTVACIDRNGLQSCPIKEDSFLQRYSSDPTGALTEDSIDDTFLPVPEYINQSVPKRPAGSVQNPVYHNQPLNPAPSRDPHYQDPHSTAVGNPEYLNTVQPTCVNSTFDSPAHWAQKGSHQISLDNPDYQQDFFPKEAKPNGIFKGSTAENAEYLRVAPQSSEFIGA
Sequence of SRC (P12931 whole entry): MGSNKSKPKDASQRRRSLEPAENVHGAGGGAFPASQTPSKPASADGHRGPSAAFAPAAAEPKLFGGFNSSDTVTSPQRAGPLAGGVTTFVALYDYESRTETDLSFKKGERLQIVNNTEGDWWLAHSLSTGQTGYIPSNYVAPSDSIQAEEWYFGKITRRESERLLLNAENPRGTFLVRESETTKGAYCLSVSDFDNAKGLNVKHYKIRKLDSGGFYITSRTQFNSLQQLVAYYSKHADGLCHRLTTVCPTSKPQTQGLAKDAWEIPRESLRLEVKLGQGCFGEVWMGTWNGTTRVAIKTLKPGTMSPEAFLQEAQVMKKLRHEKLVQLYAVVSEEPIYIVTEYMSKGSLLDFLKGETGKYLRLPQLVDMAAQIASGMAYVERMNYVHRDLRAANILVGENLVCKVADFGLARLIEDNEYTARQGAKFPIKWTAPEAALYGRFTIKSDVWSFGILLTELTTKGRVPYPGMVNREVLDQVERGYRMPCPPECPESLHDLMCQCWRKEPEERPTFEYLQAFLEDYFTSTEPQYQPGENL

Take `C[C@@H](N)[C@H]1CC[C@H](C(=O)Nc2ccncc2)CC1.Cl.Cl` [Y-27632 2HCl]: the IC50 is 2650 nM in series [1] (NMuMG, TGFβ1 2 ng/ml plus compound, 4 days; parameter decreased by 50%; read-out: FA IC50 (focal adhesion formation)); 1190 nM in series [1] (NMuMG, TGFβ1 2 ng/ml plus compound, 4 days; parameter decreased by 50%; read-out: FN IC50 (fibronectin patch formation)); 1310 nM in series [1] (NMuMG, TGFβ1 2 ng/ml plus compound, 4 days; parameter decreased by 50%; read-out: SF IC50 (stress fibers)); more than 25000 nM in series [1] (NMuMG; cell count decreased by 50% compared to DMSO control; read-out: Tox IC50); 1110 nM in series [1] (NMuMG; cell count increased by 50% compared to 100% with 10 μM SB-431542; read-out: CCI IC50 (cell count increase)); 1720 nM in series [1] (NMuMG; mean of IC50 values obtained for FA, SF, FN; read-out: EMT (FA/SF/FN) combined IC50). For the same compound, the IC50 is 2150 nM in [2] (Py2T, TGFβ plus compound, 4 days, read-out: FA IC50 (focal adhesions)); 4830 nM in series [2] (Py2T, TGFβ plus compound, 4 days, read-out: FN IC50 (fibronectin patches)); 1710 nM in series [2] (Py2T, TGFβ plus compound, 4 days, read-out: SF IC50 (stress fibers)); more than 25000 nM in series [2] (Py2T, cell count decreased by 50% compared to DMSO control, read-out: Tox IC50); 770 nM in series [2] (Py2T, compared to 10 μM SB-431542, read-out: CCI IC50 (cell count increase)); 430 nM in series [3]. The “Emax (maximal effect on cell count)” value in series [1] (NMuMG; compared to reference 10 μM SB-431542 = 100%) was 17.6%; in series [2] (Py2T) it was 43.8%. In [4], the “SMAD3 phosphorylation (p-SMAD3/GAPDH)” value was “unchanged”.
With `O=c1[nH]c(=O)n([C@H]2C[C@H](O)[C@@H](CO)O2)cc1I` [Idoxuridine], the IC50 in [1] (setting [15]) was 948 nM; in series [1] (setting [16]) it was 1170 nM; in series [1] (setting [17]), more than 25000 nM; in series [1] (setting [18]), 291 nM; in series [2] (setting [20]) it was 6350 nM. In series [1] (setting [19]), the Emax stood at 12.9%. Moreover, in series [2] (setting [21]), the “FA IC50 (focal adhesions)” value was “n.m”. The “FN IC50 (fibronectin patches)” value in series [2] (setting [21]) was “n.m”. Besides, the “SF IC50 (stress fibers)” value in series [2] (setting [21]) is “n.m”. Besides, the “Emax (maximal effect on cell count)” value in series [2] (Py2T) is listed as “n.m”. Moreover, the “SMAD3 phosphorylation (p-SMAD3/GAPDH)” value in [4] was “unchanged”.
With `CNC(=O)c1cc(Oc2ccc(NC(=O)Nc3ccc(Cl)c(C(F)(F)F)c3)cc2)ccn1` [Sorafenib], the IC50 in series [1] (Mus musculus, 96 h, read-out: FA IC50 (focal adhesion formation)) was 2090 nM; in series [1] (Mus musculus, 96 h, read-out: FN IC50 (fibronectin patch formation)), 1350 nM; in series [1] (Mus musculus, 96 h, read-out: SF IC50 (stress fibers)), 3930 nM; in series [1] (setting [22]), 103 nM; in series [1] (Mus musculus, read-out: EMT (FA/SF/FN) combined IC50) it was 2460 nM; in series [1] (Mus musculus, read-out: Tox IC50), 12600 nM. In series [1] (setting [23]), the Emax turned out to be 17.5%. Moreover, the “effect on TGFβ-induced loss of E-cadherin and ZO1 from junctions and vimentin filament formation” value in [5] was “only marginally stabilized”. The plasma protein binding in series [6] was 99.7%.
As to `NC(=O)c1ccc(-c2nc(-c3ccc4c(c3)OCO4)c(-c3ccccn3)[nH]2)cc1` [SB-431542], the IC50 is 243 nM in series [1] (Mus musculus, 96 h; NMuMG, TGFβ1 2 ng/ml plus compound, 4 days; parameter decreased by 50%; read-out: FA IC50 (focal adhesion formation)); 195 nM in series [1] (setting [15]); 184 nM in series [1] (setting [16]); approximately 200 nM in [1] (Mus musculus; NMuMG, TGFβ treatment, proof of concept; read-out: IC50 in all three parameters (focal adhesion formation, stress fibers, fibronectin deposition)); more than 25000 nM in [1] (setting [17]); 388 nM in series [1] (Mus musculus; NMuMG; mean of IC50 values obtained for FA, SF, FN; read-out: EMT (FA/SF/FN) combined IC50). Also, the IC50 is 584 nM in [1] (setting [18]); 156 nM in [2] (Mus musculus, 96 h, Py2T, TGFβ plus compound, 4 days, read-out: FA IC50 (focal adhesions)); 167 nM in [2] (Mus musculus, 96 h, Py2T, TGFβ plus compound, 4 days, read-out: FN IC50 (fibronectin patches)); 175 nM in series [2] (Mus musculus, 96 h, Py2T, TGFβ plus compound, 4 days, read-out: SF IC50 (stress fibers)); approximately 200 nM in [2] (Mus musculus, Py2T, TGFβ-induced EMT, read-out: IC50 for reduction of EMT markers); 7460 nM in series [2] (setting [20]). Besides, the IC50 was 140 nM in series [2] (setting [22]); more than 10000 nM in [7]; more than 10000 nM in series [8]; more than 10000 nM in series [9]; more than 10000 nM in series [10]; more than 10000 nM in series [11]. The IC50 in series [12], in [13] and in series [14] was more than 10000 nM in each case. Further, the Emax in [1] (setting [19]) and in [2] (setting [23]) was 100% each time. The “SMAD3 phosphorylation (p-SMAD3/GAPDH)” value in series [4] is listed as “blocked”. In series [5], the “effect on TGFβ-induced loss of E-cadherin and ZO1 from junctions and vimentin filament formation” value is “completely blocked”.

Source of the values: article PMC5041959, “A high-content EMT screen identifies multiple receptor tyrosine kinase inhibitors with activity on TGFβ receptor” (Oncotarget, 2016).
